Each block holds one compound with its values, some of them ahead of it.
Experiments:
MIF [1] = target: T1, MIF (Homo sapiens, UniProt P14174); experiment: MST assay, binding affinity to MIF; conditions: mean ± SD
T1 construct: purchased Abcam ab51096
T1 sequence (P14174 2-115 limits assumed): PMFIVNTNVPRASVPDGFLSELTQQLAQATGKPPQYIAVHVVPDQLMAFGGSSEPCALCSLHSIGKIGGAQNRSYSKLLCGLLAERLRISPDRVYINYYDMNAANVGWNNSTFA
Description: (§1) All chemicals were purchased from commercial suppliers without additional purification required. […] The high-performance liquid chromatography (HPLC) spectra data for each compound were provided in the Supplementary Materials (Figures S2.1–2.6). RAW 264.7 murine macrophages were purchased from the American Type Culture Collection (ATCC, TIB-71). 10% foetal bovine serum (FBS), 100 units/mL of penicillin, and 100 µg/mL of streptomycin were added to the Dulbecco’s modified Eagle’s medium (DMEM). The FBS, penicillin, streptomycin, and DMEM were purchased from Gibco (Grand Island, NY, USA). The cells were cultured in the incubator that was humidified with 5% CO2 and 95% air at 37 °C. The human recombinant MIF was purchased from Abcam (Cambridge, MA, USA) and catalogue number was ab51096.
The MST assay was used to measure the Kd value, aiming to assess the binding affinity between small molecules and targeted proteins in the field of drug discovery. […] The degree of labelling (DOL) of the MIF protein was calculated. The ideal DOL was in the range of 0.5–1. The Monolith™ RED-NHS second-generation protein labelling kit (NanoTemper Technologies) was used for the fluorescent labelling of MIF protein. We strictly followed the instructions of the kit for the experiment. The PBST (Phosphate-Buffered Saline with Tween) solution containing 0.05% Tween 20 was configured. The ligand was diluted into 16 concentration gradients using the semi-dilution method. The fluorescently labelled protein was added and thoroughly mixed, then incubated for 5 min in the dark. The solution was taken by capillary tube and assayed with the Monolith NT.115 instrument (NanoTemper Technologies). Subsequently, the difference was recorded in fluorescence intensity. The fluorescence intensity was plotted against the concentration of the hit compounds to generate a fluorescence dose curve, following which the Kd value was calculated.

MIF [2] = target: T1, MIF; experiment: ITC assay, binding affinity to MIF; conditions: 25 °C, pH 7.5, mean ± SD
Description: as §1

MIF-CD74 binding = target: T2, MIF-CD74 binding (Homo sapiens, UniProt P14174); experiment: Pull down assay of GST-MIF with CD74; conditions: 40 nM biotin-Hit-1; 100 nM and 200 nM CD74; western blot
T2 sequence (P14174 1-115): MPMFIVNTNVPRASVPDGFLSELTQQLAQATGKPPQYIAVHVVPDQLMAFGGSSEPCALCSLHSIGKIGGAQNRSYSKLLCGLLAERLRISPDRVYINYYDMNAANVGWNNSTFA
Description: The pull down experiment was executed as described previously[36] and in line with defined standard principles. The pre-washed beads with purified GST-MIF were incubated for 2 h at 4 °C. The sample was centrifuged at 10 000 rpm and the purified protein was transferred to a new Eppendorf (EP) tube to remove non-specifically bound background proteins. The 40 nM of biotin-Hit-1 was added to the purified protein for incubation. […] The beads were washed five times with PBST. The proteins were denatured at 100 °C for 5 min. The protein bands were isolated and segregated via sodium dodecyl sulphate-polyacrylamide gel electrophoresis (SDS-PAGE) technique. The polyvinylidene fluoride (PVDF) membrane was pre-soaked in methanol. The protein bands were transferred onto the PVDF membrane under the condition of 200 mA. The membrane was blocked by incubating it with 3% bovine serum albumin (BSA) in PBS at 37 °C for 2 h. After every incubation period ended, the membrane was washed three times successively with PBST, with each washing step taking 10 min. Subsequently, the membrane was subjected to incubating with the primary antibody on a shaker overnight at 4 °C. […] Thereafter, the light signal was detected by a sophisticated detection system. Employing the Image J software, the intensity of the bands was quantified.

RAW 264.7 macrophages = experiment: RT-qPCR of LPS-induced proinflammatory gene expression; format: cell-based, murine; conditions: mRNA, LPS 200 ng/mL 6 h, then 300 nM compound 30 min
From the text: All chemicals were purchased from commercial suppliers without additional purification required. […] Hits 1–6 compounds were obtained from WuXi AppTec (Shanghai, China) with a purity exceeding 98%. The high-performance liquid chromatography (HPLC) spectra data for each compound were provided in the Supplementary Materials (Figures S2.1–2.6). RAW 264.7 murine macrophages were purchased from the American Type Culture Collection (ATCC, TIB-71). 10% foetal bovine serum (FBS), 100 units/mL of penicillin, and 100 µg/mL of streptomycin were added to the Dulbecco’s modified Eagle’s medium (DMEM). The FBS, penicillin, streptomycin, and DMEM were purchased from Gibco (Grand Island, NY, USA). The cells were cultured in the incubator that was humidified with 5% CO2 and 95% air at 37 °C. The human recombinant MIF was purchased from Abcam (Cambridge, MA, USA) and catalogue number was ab51096. This experiment was carried out in accordance with the relevant literature. […] RAW 264.7 macrophages were subjected to treatment with LPS at a concentration of 200 ng/mL for 6 h. […] The Trizol method was used to extract the total ribonucleic acid (RNA) from the cells. The RNA reverse transcription kit (Invitrogen) was used to synthesise complementary deoxyribonucleic acid (cDNA) according to the manufacturer’s instructions. The SYRB Green qPCR kit and the primers were used for amplification. Thereafter, to standardise the data, the expression levels of the target genes were normalised to GAPDH and calculated by using the 2^−ΔΔCT method. The expression data were presented in the format of fold-change for clear visualisation.

MIF [3] = system: MIF; parameters: method as in PMID 34153665, PMID 33823428; conditions: cited from earlier work

Structure (SMILES): CCc1ccn2cc(-c3cc(-c4ccccc4)no3)nc2c1 [Hit-1]
Kd (MIF [1]): 290 ± 10 nM | Kd (MIF [2]): 320 ± 10 nM | Effect on MIF interaction with CD74 (MIF-CD74 binding): potently suppressed | Reduction of TNF-α level compared with the LPS group (RAW 264.7 macrophages): 3.7 fold | Inhibitory effect on the IL-1β (RAW 264.7 macrophages; compared with compound 3a): distinctly stronger inhibitory effect | Inhibitory effect on the IL-6 level (RAW 264.7 macrophages; compared with compound 3a): markedly stronger inhibitory effect

Structure (SMILES): COc1ccc(-c2cc(C)nc(SCc3cccc(C(=O)O)c3)n2)cc1 [Hit Z-312, 3-({[4-(4-methoxyphenyl)-6-methyl-2-pyrimidinyl]thio}1methyl)benzoic acid]
Release of pro-inflammatory factors induced by LPS (TNF-α, IL-6, IL-1β) (MIF [3]): suppress the release

Structure (SMILES): Oc1ccc(-n2cc(-c3ccc4ccccc4n3)nn2)cc1 [Hit 3a, reference compound]
Reduction of TNF-α level compared with the LPS group (RAW 264.7 macrophages): 2.2 fold

Structure (SMILES): COC(=O)CC1CC(c2ccc(O)cc2)=NO1 (centres unmarked) [ISO-1]
Release of pro-inflammatory factors induced by LPS (TNF-α, IL-6, IL-1β) (MIF [3]): suppress the release

Next, values leading:

Kd (MIF [1]): 720 ± 50 nM
Structure (SMILES): Cc1nn(-c2ccccc2)nc1-c1nnc(-c2ccc(C(F)(F)F)cc2)o1 [Hit-6]

Kd (MIF [1]): 460 ± 30 nM
Structure (SMILES): Cc1ccn2cc(-c3cc(-c4ccccc4)no3)nc2c1 [Hit-2]

Kd (MIF [1]): 810 ± 40 nM
Structure (SMILES): Cc1nn(-c2ccccc2)nc1-c1nnc(-c2ccccc2)o1 [Hit-5]

Kd (MIF [1]): 540 ± 20 nM
Structure (SMILES): c1ccc(-c2cc(-c3cn4cccnc4n3)on2)cc1 [Hit-3]

Kd (MIF [1]): 750 ± 60 nM
Structure (SMILES): Cc1nn(-c2ccccc2)nc1-c1nnc(-c2ccc(Cl)cc2)o1 [Hit-4]

From PMC12172083, “Identification of a novel and high affinity MIF inhibitor via structure-based pharmacophore modelling, molecular docking, molecular dynamics simulations, and biological evaluation” (Journal of Enzyme Inhibition and Medicinal Chemistry, 2025)
